Patent US20050255537A1, “Method for monitoring treatment with a parathyroid hormone” (priority 1999, published 2005)
“And” between values parts separate entries of the source, which are not always exact repeats. Equal values may be shown once.

System: men with primary osteoporosis
Test: Example 5 study GHAJ: bone densitometry (BMD, BMC) in men
Type: in vivo, human
Details: for Distal Radius (Forearm) BMD, mean change from baseline to endpoint / Distal Radius (Forearm) BMD, mean percent change from baseline to endpoint / Ultradistal Radius (Forearm) BMD, mean change from baseline to endpoint / Ultradistal Radius (Forearm) BMD, mean percent change from baseline to endpoint / Whole body BMD, mean change from baseline to endpoint: subset of patients; for increase in lumbar spine BMD compared to placebo at endpoint: median follow-up approximately 11 months
Method: Four hundred thirty seven men with primary osteoporosis were enrolled in the study. Approximately one-third of die patients were randomly assigned to LY333334 40 μg/day plus calcium and vitamin D, one-third of the patients were randomly assigned to LY333334 20 μg/day plus calcium and vitamin D, and one-third of the patients were randomly assigned to placebo plus calcium and vitamin D. • Number of Subjects: • PTH: Male 437, Female 0, Total 437; • LY333334 20 μg: Male: Total 151. • LY333334 40 μg: Male: Total 139. • Placebo: Male: Total 147. • Diagnosis and Inclusion Criteria: The study patients were men with primary osteoporosis, aged 30 to 85 years, inclusive. L-2 to L-4 vertebrae must have been intact without artifacts, crush fracture or other abnormalities which would have interfered with the analysis of the posterior-anterior lumbar spine bone mineral density (BMD) measurement which must have been at least 2.0 SD below that of young, healthy men. […] Patient Demographic and Other Baseline Characteristics

In the case of `CC[C@H](C)[C@H](NC(=O)[C@H](CCC(=O)O)NC(=O)[C@H](CO)NC(=O)[C@@H](NC(=O)[C@@H](N)CO)C(C)C)C(=O)N[C@@H](CCC(N)=O)C(=O)N[C@@H](CC(C)C)C(=O)N[C@@H](CCSC)C(=O)N[C@@H](Cc1cnc[nH]1)C(=O)N[C@@H](CC(N)=O)C(=O)N[C@@H](CC(C)C)C(=O)NCC(=O)N[C@@H](CCCCN)C(=O)N[C@@H](Cc1cnc[nH]1)C(=O)N[C@@H](CC(C)C)C(=O)N[C@@H](CC(N)=O)C(=O)N[C@@H](CO)C(=O)N[C@@H](CCSC)C(=O)N[C@@H](CCC(=O)O)C(=O)N[C@@H](CCCN=C(N)N)C(=O)N[C@H](C(=O)N[C@@H](CCC(=O)O)C(=O)N[C@@H](Cc1c[nH]c2ccccc12)C(=O)N[C@@H](CC(C)C)C(=O)N[C@@H](CCCN=C(N)N)C(=O)N[C@@H](CCCCN)C(=O)N[C@@H](CCCCN)C(=O)N[C@@H](CC(C)C)C(=O)N[C@@H](CCC(N)=O)C(=O)N[C@@H](CC(=O)O)C(=O)N[C@H](C(=O)N[C@@H](Cc1cnc[nH]1)C(=O)N[C@@H](CC(N)=O)C(=O)N[C@@H](Cc1ccccc1)C(=O)O)C(C)C)C(C)C` [LY333334], the “patients with a decrease in vertebral BMD at study endpoint” value (20 μg) is reported as 7.1%, the “increase in whole body BMC compared with the placebo group” value (20 μg group) is reported as “approximately 0.9%” and the “Femoral Neck BMD, mean change from baseline to endpoint” value (20 μg/day) is reported as 0.01 ± 0.03 g/cm^2. For the same molecule, the “Femoral Neck BMD, mean percent change from baseline to endpoint” value (20 μg/day) was 1.4% and 1.44% and 1.44 ± 3.61%, the “Intertrochanter BMD, mean change from baseline to endpoint” value (20 μg/day) was 0.01 ± 0.03 g/cm^2 and the “Intertrochanter BMD, mean percent change from baseline to endpoint” value (20 μg/day) was 1.20 ± 3.07%. The “Lumbar Spine (L-1 through L-4) BMD, mean change from baseline to endpoint” value (20 μg/day) was 0.05 ± 0.04 g/cm^2, the “Lumbar Spine (L-1 through L-4) BMD, mean percent change from baseline to endpoint” value (20 μg/day) was 5.7% and 5.73% and 5.73 ± 4.46% and the “Total Hip BMD, mean change from baseline to endpoint” value (20 μg/day) was 0.01 ± 0.02 g/cm^2. The “Total Hip BMD, mean percent change from baseline to endpoint” value (20 μg/day) was 1.14% and 1.14 ± 2.89%, the “Trochanter BMD, mean change from baseline to endpoint” value (20 μg/day) was 0.01 ± 0.03 g/cm^2 and the “Trochanter BMD, mean percent change from baseline to endpoint” value (20 μg/day) was 1.25 ± 4.15%. The “Ward's Triangle BMD, mean change from baseline to endpoint” value (20 μg/day) was 0.01 ± 0.04 g/cm^2, the “Ward's Triangle BMD, mean percent change from baseline to endpoint” value (20 μg/day) was 2.48 ± 7.20% and the “increase in hip (femoral neck) BMC at study endpoint” value (20 μg/day) was 1%. The “increase in lumbar spine BMC at study endpoint” value (20 μg/day) was 7%, the “Distal Radius (Forearm) BMD, mean change from baseline to endpoint” value (20 μg/day) was −0.00 ± 0.02 g/cm^2 and the “Distal Radius (Forearm) BMD, mean percent change from baseline to endpoint” value (20 μg/day) was −0.47 ± 2.21%. The “Ultradistal Radius (Forearm) BMD, mean change from baseline to endpoint” value (20 μg/day) was −0.00 ± 0.01 g/cm^2, the “Ultradistal Radius (Forearm) BMD, mean percent change from baseline to endpoint” value (20 μg/day) was −0.40 ± 3.15% and the “Whole body BMD, mean change from baseline to endpoint” value (20 μg/day) was 0.01 ± 0.03 g/cm^2. The “patients with a decrease in vertebral BMD at study endpoint” value (40 μg) was 6.2%, the “decrease in distal ⅓ radius (forearm) BMD compared with the placebo group” value (40 μg group) was 1.0% and the “increase in whole body BMC compared with the placebo group” value (40 μg group) was 1.3%. For the same molecule, the “Femoral Neck BMD, mean change from baseline to endpoint” value (40 μg/day) was 0.02 ± 0.04 g/cm^2, the “Femoral Neck BMD, mean percent change from baseline to endpoint” value (40 μg/day) was 2.9% and 2.85% and 2.85 ± 6.07% and the “Intertrochanter BMD, mean change from baseline to endpoint” value (40 μg/day) was 0.02 ± 0.04 g/cm^2. The “Intertrochanter BMD, mean percent change from baseline to endpoint” value (40 μg/day) was 2.32 ± 4.57%, the “Lumbar Spine (L-1 through L-4) BMD, mean change from baseline to endpoint” value (40 μg/day) was 0.07 ± 0.05 g/cm^2 and the “Lumbar Spine (L-1 through L-4) BMD, mean percent change from baseline to endpoint” value (40 μg/day) was 8.8% and 8.75% and 8.75 ± 6.25%. The “Total Hip BMD, mean change from baseline to endpoint” value (40 μg/day) was 0.02 ± 0.03 g/cm^2, the “Total Hip BMD, mean percent change from baseline to endpoint” value (40 μg/day) was 2.33% and 2.33 ± 4.51% and the “Trochanter BMD, mean change from baseline to endpoint” value (40 μg/day) was 0.01 ± 0.03 g/cm^2. The “Trochanter BMD, mean percent change from baseline to endpoint” value (40 μg/day) was 1.98 ± 5.16%, the “Ward's Triangle BMD, mean change from baseline to endpoint” value (40 μg/day) was 0.03 ± 0.05 g/cm^2 and the “Ward's Triangle BMD, mean percent change from baseline to endpoint” value (40 μg/day) was 6.19 ± 10.21%. For the same molecule, the “increase in hip (femoral neck) BMC at study endpoint” value (40 μg/day) was 3%, the “increase in lumbar spine BMC at study endpoint” value (40 μg/day) was 10% and the “Distal Radius (Forearm) BMD, mean change from baseline to endpoint” value (40 μg/day) was −0.01 ± 0.02 g/cm^2. The “Distal Radius (Forearm) BMD, mean percent change from baseline to endpoint” value (40 μg/day) was −0.67 ± 2.36%, the “Ultradistal Radius (Forearm) BMD, mean change from baseline to endpoint” value (40 μg/day) was 0.00 ± 0.02 g/cm^2 and the “Ultradistal Radius (Forearm) BMD, mean percent change from baseline to endpoint” value (40 μg/day) was 0.54 ± 5.98%. The “Whole body BMD, mean change from baseline to endpoint” value (40 μg/day) was 0.01 ± 0.03 g/cm^2, the “patients with an increase in lumbar spine BMD of 5% or more” value (20-μg group) was 54.6% and the “lumbar spine BMD increase from baseline by visit” value (shortened to “lumbar spine BMD increase”) (20-μg group, Month 3) was 2.44%. The “lumbar spine BMD increase” value (20-μg group, Month 6) was 4.29, the “difference in lumbar spine BMD between treatment group and placebo” value (20-μg group, Month 12) was 5.49% and the “lumbar spine BMD increase” value (20-μg group, Month 12) was 6.07%. For the same molecule, the “increase in lumbar spine BMD compared to placebo at endpoint” value (20-μg/day) was 5%, the “lumbar spine BMD response in hypogonadal vs idiopathic subgroups” value (20 and 40 μg) was “did not differ significantly” and the “patients with an increase in lumbar spine BMD of 5% or more” value (40-μg group) was 70.5%. For the same molecule, the “lumbar spine BMD increase” value (40-μg group, Month 3) was 3.87%, the “lumbar spine BMD increase” value (40-μg group, Month 6) was 6.33% and the “difference in lumbar spine BMD between treatment group and placebo” value (40-μg group, Month 12) was 8.83%. The “lumbar spine BMD increase” value (40-μg group, Month 12) was 9.41%, the “increase in lumbar spine BMD compared to placebo at endpoint” value (40-μg/day) was 8% and the “distal ⅓ radius (forearm) and ultradistal radius BMD compared with the placebo group” value (both 20-μg and 40-μg groups) was “unchanged”.
